From ChEMBL document CHEMBL4651402, “Screening of ~5500 FDA-approved drugs and clinical candidates for anti-SARS-CoV-2 activity” (2021) come the findings set out here.

Each structure is given as a SMILES string. Structures can show the parent of a compound that is named as a salt. Some results are limits rather than exact numbers.

The subject of the first assay is SARS-CoV-2. The assay is described as follows: microbe, parasite or virus in culture. As to conditions: Severe acute respiratory syndrome coronavirus 2, Vero C1008, 48 h.
`OCC(O)COc1ccc(Cl)cc1` (centres undefined) yielded an IC50 above 20 µM.

`CC(=O)OC[C@H]1O[C@@H](n2ncc(=O)[nH]c2=O)[C@H](OC(C)=O)[C@@H]1OC(C)=O` [AZARIBINE] gave an IC50 above 20 µM.

`CN1CCCN=C1/C=C/c1cccs1` yielded an IC50 above 20 µM.

Compound `CN[C@H](Cc1ccccc1)C(=O)N1CCC[C@H]1C(=O)N[C@H](C=O)CCCNC(=N)N` displayed an IC50 above 20 µM.

Consider `N=C(N)NCCN1CCCCCCC1` [GUANETHIDINE], for which the IC50 is above 20 µM.

For the compound `O=C(O)Cc1csc(-c2ccc(Cl)cc2)n1` [FENCLOZIC ACID], the IC50 was above 20 µM.

Turning to `O=C(O)CCCC[C@H]1SC[C@H]2NC(=O)N[C@H]21`, the IC50 is above 20 µM.

As to `C=C[C@](C)(O)CC[C@H]1C(=C)C[C@H](OC(C)=O)[C@H]2C(C)(C)CCC[C@]12C`, the IC50 is above 20 µM.

`CCCC1O[C@@H]2C[C@H]3[C@@H]4CCC5=CC(=O)C=C[C@]5(C)[C@H]4[C@@H](O)C[C@]3(C)[C@]2(C(=O)CO)O1` (some centres undefined) [BUDESONIDE] gave an IC50 above 20 µM.

For `O=C1Nc2ccc(Cl)cc2[C@](C#CC2CC2)(C(F)(F)F)O1`, the IC50 is above 20 µM.

In turn, `CCN(CC)CCNC(=O)c1cc(Cl)c(N)cc1OC(C)C(C)=O` (centres undefined) [BATANOPRIDE] yielded an IC50 above 20 µM.

`CCO[C@@H]1OC(=O)C[C@@H]1NC(=O)[C@@H]1CCCN2C(=O)CC[C@H](NC(=O)c3nccc4ccccc34)C(=O)N12` registered an IC50 above 20 µM.

`C=CCc1cc(OC)c2c(c1OC)OCO2` [APIOL] returned an IC50 above 20 µM.

As for `CCC[C@@H]1C[C@@H](C(=O)N[C@@H]([C@H]2O[C@H](SC)[C@H](O)[C@@H](O)[C@H]2O)[C@H](C)Cl)N(C)C1` [CLINDAMYCIN HYDROCHLORIDE], the IC50 is above 20 µM.

In the case of `CC(C)n1nc(-c2cccc(Cl)c2Cl)c(N)nc1=N` [PALATRIGINE], the IC50 was above 20 µM.

Compound `O=C(O)Cc1ccccc1Nc1c(Cl)cccc1Cl` [DICLOFENAC] displayed an IC50 above 20 µM.

Consider `CO[C@H]1C=C2CCN(C)[C@H]2[C@@H]2c3cc4c(cc3C(=O)O[C@H]21)OCO4` (single isomer, unassigned), for which the IC50 was above 20 µM.

Compound `C1CCC2(C1)C1CN(CC3CC3)CC2CN(CC2CC2)C1` yielded an IC50 above 20 µM.

The compound `CCCc1c2oc(C(=O)O)cc(=O)c2cc2c(=O)cc(C(=O)O)n(CC)c12` [NEDOCROMIL] came in with an IC50 above 20 µM.

Turning to `CC(=O)OC1CN2CCC1CC2` (centres undefined) [ACECLIDINE], the IC50 is above 20 µM.

As to `CC1=CC(=O)C2=C(C)CCC3C(C)C(=O)OC3C12` (centres undefined), the IC50 was above 20 µM.

As to `COc1cc(C(=O)O)cc(OC)c1O` [SYRINGIC ACID], the IC50 is above 20 µM.

For the compound `CC(=O)O[C@]1(C(C)=O)CC[C@H]2[C@@H]3C=C(Cl)C4=CC(=O)CC[C@]4(C)[C@H]3CC[C@@]21C` [CHLORMADINONE ACETATE], the IC50 is above 20 µM.

Compound `Nc1nc(=O)n([C@H]2C[C@H](O)[C@@H](CO)O2)cc1F` showed an IC50 above 20 µM.

`C1=CN2CC(c3cccs3)N=C2S1` (centres undefined) had an IC50 above 20 µM.

Turning to `CC[C@@](C)(Nc1ccnc(-c2c[nH]c3ncccc23)n1)C(=O)NCC(F)(F)F` [DECERNOTINIB], the IC50 is above 20 µM.

`CCOc1ccc(/N=N/c2ccc(N)cc2N)cc1` [ETHOXAZENE] showed an IC50 above 20 µM.

In the case of `CC1CC2=CC(=O)CCC2C2CCC3(C)C(CCC3(C)O)C12` (centres undefined), the IC50 was above 20 µM.

For the compound `COC[C@H](O)Cn1c(=O)cnn(-c2ccc(Cl)c(C(=O)NCC3(O)CCCCCC3)c2)c1=O` [CE-224535], the IC50 was above 20 µM.

`O=C1O[C@@H]([C@@H](O)CO)C(O)=C1O` had an IC50 above 20 µM.

`O=C(NNCS(=O)(=O)O)c1ccncc1` [METHANIAZIDE] showed an IC50 above 20 µM.

In turn, `c1ccc(C(CC2=NCCN2)c2ccccn2)cc1` (centres undefined) [MIDAGLIZOLE] registered an IC50 above 20 µM.

The assay is the same for the next values; noted with them: Severe acute respiratory syndrome coronavirus 2, Vero C1008, 48 h, read-out: pIC50 (converted).
As to `OCC(O)COc1ccc(Cl)cc1` (centres undefined), the IC50 was above 20 µM.

As for `CC(=O)OC[C@H]1O[C@@H](n2ncc(=O)[nH]c2=O)[C@H](OC(C)=O)[C@@H]1OC(C)=O` [AZARIBINE], the IC50 is above 20 µM.

On to `CN1CCCN=C1/C=C/c1cccs1`, for which the IC50 was above 20 µM.

As to `CN[C@H](Cc1ccccc1)C(=O)N1CCC[C@H]1C(=O)N[C@H](C=O)CCCNC(=N)N`, the IC50 was above 20 µM.

With `N=C(N)NCCN1CCCCCCC1` [GUANETHIDINE], the IC50 is above 20 µM.

For `O=C(O)Cc1csc(-c2ccc(Cl)cc2)n1` [FENCLOZIC ACID], the IC50 was above 20 µM.

With `O=C(O)CCCC[C@H]1SC[C@H]2NC(=O)N[C@H]21`, the IC50 is above 20 µM.

On to `C=C[C@](C)(O)CC[C@H]1C(=C)C[C@H](OC(C)=O)[C@H]2C(C)(C)CCC[C@]12C`, for which the IC50 is above 20 µM.

Consider `CCCC1O[C@@H]2C[C@H]3[C@@H]4CCC5=CC(=O)C=C[C@]5(C)[C@H]4[C@@H](O)C[C@]3(C)[C@]2(C(=O)CO)O1` (some centres undefined) [BUDESONIDE], for which the IC50 is above 20 µM.

For `O=C1Nc2ccc(Cl)cc2[C@](C#CC2CC2)(C(F)(F)F)O1`, the IC50 was above 20 µM.

Take `CCN(CC)CCNC(=O)c1cc(Cl)c(N)cc1OC(C)C(C)=O` (centres undefined) [BATANOPRIDE]: the IC50 was above 20 µM.

Turning to `CCO[C@@H]1OC(=O)C[C@@H]1NC(=O)[C@@H]1CCCN2C(=O)CC[C@H](NC(=O)c3nccc4ccccc34)C(=O)N12`, the IC50 was above 20 µM.

With `C=CCc1cc(OC)c2c(c1OC)OCO2` [APIOL], the IC50 was above 20 µM.

Turning to `CCC[C@@H]1C[C@@H](C(=O)N[C@@H]([C@H]2O[C@H](SC)[C@H](O)[C@@H](O)[C@H]2O)[C@H](C)Cl)N(C)C1` [CLINDAMYCIN HYDROCHLORIDE], the IC50 is above 20 µM.

In the case of `CC(C)n1nc(-c2cccc(Cl)c2Cl)c(N)nc1=N` [PALATRIGINE], the IC50 was above 20 µM.

As for `O=C(O)Cc1ccccc1Nc1c(Cl)cccc1Cl` [DICLOFENAC], the IC50 was above 20 µM.

In the case of `CO[C@H]1C=C2CCN(C)[C@H]2[C@@H]2c3cc4c(cc3C(=O)O[C@H]21)OCO4` (single isomer, unassigned), the IC50 was above 20 µM.

Take `C1CCC2(C1)C1CN(CC3CC3)CC2CN(CC2CC2)C1`: the IC50 was above 20 µM.

With `CCCc1c2oc(C(=O)O)cc(=O)c2cc2c(=O)cc(C(=O)O)n(CC)c12` [NEDOCROMIL], the IC50 was above 20 µM.

For `CC(=O)OC1CN2CCC1CC2` (centres undefined) [ACECLIDINE], the IC50 was above 20 µM.

Regarding `CC1=CC(=O)C2=C(C)CCC3C(C)C(=O)OC3C12` (centres undefined), the IC50 is above 20 µM.

With `COc1cc(C(=O)O)cc(OC)c1O` [SYRINGIC ACID], the IC50 is above 20 µM.

With `CC(=O)O[C@]1(C(C)=O)CC[C@H]2[C@@H]3C=C(Cl)C4=CC(=O)CC[C@]4(C)[C@H]3CC[C@@]21C` [CHLORMADINONE ACETATE], the IC50 was above 20 µM.

For the compound `Nc1nc(=O)n([C@H]2C[C@H](O)[C@@H](CO)O2)cc1F`, the IC50 is above 20 µM.

With `C1=CN2CC(c3cccs3)N=C2S1` (centres undefined), the IC50 was above 20 µM.

For `CC[C@@](C)(Nc1ccnc(-c2c[nH]c3ncccc23)n1)C(=O)NCC(F)(F)F` [DECERNOTINIB], the IC50 is above 20 µM.

For the compound `CCOc1ccc(/N=N/c2ccc(N)cc2N)cc1` [ETHOXAZENE], the IC50 was above 20 µM.

For `CC1CC2=CC(=O)CCC2C2CCC3(C)C(CCC3(C)O)C12` (centres undefined), the IC50 is above 20 µM.

Consider `COC[C@H](O)Cn1c(=O)cnn(-c2ccc(Cl)c(C(=O)NCC3(O)CCCCCC3)c2)c1=O` [CE-224535], for which the IC50 is above 20 µM.

For the compound `O=C1O[C@@H]([C@@H](O)CO)C(O)=C1O`, the IC50 is above 20 µM.

On to `O=C(NNCS(=O)(=O)O)c1ccncc1` [METHANIAZIDE], for which the IC50 is above 20 µM.

Take `c1ccc(C(CC2=NCCN2)c2ccccn2)cc1` (centres undefined) [MIDAGLIZOLE]: the IC50 was above 20 µM.
